For orientation: IC50 means the concentration at which inhibition is half-maximal.

The subject of this test is HBsAg. The test can be described thus: HBsAg assay (chemiluminescence immunoassay of secreted HBsAg in HepG2.2.15 culture supernatant). The test is classed as cell-based, HBV. The following applies: HepG2.2.15 cells, CLIA kit. As to the method:
HepG2.2.15 cells (Acs et al. Proc Natl Acad Sci USA, 84, (1987), 4641-4), a constitutively HBV-expressing cell line were cultured in DMEM+Glutamax-I medium (Invitrogen, Carlsbad, Calif., USA), supplemented with 10% fetal bovine serum (Invitrogen) and G418 (Invitrogen) at a final concentration of 200 mg/L and maintained in 5% CO2 at 37° C.
HepG2.2.15 cells were seeded in duplicate into white, 96-well plates at 1.5×10^4 cells/well. The cells were treated with a three-fold serial dilution series of the compounds in DMSO. The final DMSO concentration in all wells was 1% and DMSO was used as no drug control.
The HBsAg chemiluminescence immunoassay (CLIA) kit (Autobio Diagnostics Co., Zhengzhou, China, Catalog number: CL0310-2) was used to measure the levels of secreted HBV antigens semi-quantitatively. For the detection 50 μL/well culture supernatant was used and HBsAg was quantified using HBsAg chemiluminescence immunoassay (CLIA) kit (Autobio Diagnostics Co., Zhengzhou, China, Catalog number: CL0310-2), 50 μL of the supernatant was transferred to the CLIA assay plate and 50 μL of enzyme conjugate reagent was added into each well. The plates were sealed and gently agitated for 1 hour at room temperature. The supernatant-enzyme-mixture was discarded and wells were washed 6 times with 300 μL of PBS. The residual liquid was removed by plating the CLIA plate right side down on absorbent tissue paper. 25 μL of substrates A and B were added to each well. Luminance was measured using a luminometer (Mithras LB 940 Multimode Microplate Reader) after 10 minutes incubation. Dose-response curves were generated and the IC50 value was extrapolated by using the E-WorkBook Suite (ID Business Solutions Ltd., Guildford, UK).
The compounds of the present invention were tested for their capacity to inhibit HBsAg as described herein.

The mark [1] stands for this setting: Hepatitis B virus, HepG2.2.15, HBsAg secretion reduced by 50% vs no drug control.
Setting [2] is: HBsAg secretion reduced by 50% vs no drug control.

For `CC[C@@H]1[C@@H](C)c2cc(OCCOC)c(Cl)cc2-c2cc(=O)c(C(=O)O)cn21` (relative stereo) [Example 212A, (6R*, 7S*)-10-chloro-6-ethyl-9-(2-methoxyethoxy)-7-methyl-2-oxo-6,7-dihydrobenzo[a]quinolizine-3-carboxylic acid], half-maximal inhibition under setting [1] (IC50) required 330 nM.
As for `CC[C@@H]1[C@H](C)c2cc(OCCOC)c(Cl)cc2-c2cc(=O)c(C(=O)O)cn21` (relative stereo) [Example 212B, (6R*,7R*)-10-chloro-6-ethyl-9-(2-methoxyethoxy)-7-methyl-2-oxo-6,7-dihydrobenzo[a]quinolizine-3-carboxylic acid], it took 29 nM to reach half-maximal inhibition under setting [1] (IC50).
`CCC1Cc2cc(OCc3ccccc3)c(OC)cc2-c2cc(=O)c(C(=O)O)cn21` (single isomer, unassigned; (+)) [Example 9, (+)-9-benzyloxy-6-ethyl-10-methoxy-2-oxo-6,7-dihydrobenzo[a]quinolizine-3-carboxylic acid] had a half-inhibitory concentration (IC50) under setting [2] of 15 nM.
On the same count and under the same terms, then `CCC1Cc2cc(OCC(C)(C)CO)c(OC)cc2-c2cc(=O)c(C(=O)O)cn21` (single isomer, unassigned; (+)) [Example 23, (+)-6-ethyl-9-(3-hydroxy-2,2-dimethyl-propoxy)-10-methoxy-2-oxo-6,7-dihydrobenzo[a]quinolizine-3-carboxylic acid], with 12 nM; and `CCC1Cc2cc(OCCOC)c(OC)cc2-c2cc(=O)c(C(=O)O)cn21` (single isomer, unassigned; (+)) [Example 28, (+)-6-ethyl-10-methoxy-9-(2-methoxyethoxy)-2-oxo-6,7-dihydrobenzo[a]quinolizine-3-carboxylic acid], with 29 nM.
The same measure, in the same setting: the same measure for `CCC1Cc2cc(OCC3CC3)c(OC)cc2-c2cc(=O)c(C(=O)O)cn21` (single isomer, unassigned; (+)) [Example 31, (+)-9-(cyclopropylmethoxy)-6-ethyl-10-methoxy-2-oxo-6,7-dihydrobenzo[a]quinolizine-3-carboxylic acid]: 9 nM.
Turning to `CCC1Cc2cc(OCC(C)C)c(OC)cc2-c2cc(=O)c(C(=O)O)cn21` (single isomer, unassigned; (+)) [Example 34, (+)-6-ethyl-9-isobutoxy-10-methoxy-2-oxo-6,7-dihydrobenzo[a]quinolizine-3-carboxylic acid], half-maximal inhibition under setting [2] (IC50) required 4 nM.
Still for that read-out and setting: the same measure for `CCOc1cc2c(cc1OC)-c1cc(=O)c(C(=O)O)cn1C(CC)C2` (single isomer, unassigned; (+)) [Example 37, (+)-9-ethoxy-6-ethyl-10-methoxy-2-oxo-6,7-dihydrobenzo[a]quinolizine-3-carboxylic acid]: 8 nM.
On to `CCC1Cc2cc(OCCCOC)c(OC)cc2-c2cc(=O)c(C(=O)O)cn21` (single isomer, unassigned; (+)) [Example 40, (+)-6-ethyl-10-methoxy-9-(3-methoxypropoxy)-2-oxo-6,7-dihydrobenzo[a]quinolizine-3-carboxylic acid], for which half-maximal inhibition under setting [2] (IC50) was put at 13 nM.
For the molecule `CCOCCOc1cc2c(cc1OC)-c1cc(=O)c(C(=O)O)cn1C(CC)C2` (single isomer, unassigned; (+)) [Example 43, (+)-9-(2-ethoxyethoxy)-6-ethyl-10-methoxy-2-oxo-6,7-dihydrobenzo[a]quinolizine-3-carboxylic acid], the IC50 under setting [2] is 46 nM.
`CCC1Cc2cc(OCC(F)F)c(OC)cc2-c2cc(=O)c(C(=O)O)cn21` (single isomer, unassigned; (+)) [Example 46, (+)-9-(2,2-difluoroethoxy)-6-ethyl-10-methoxy-2-oxo-6,7-dihydrobenzo[a]quinolizine-3-carboxylic acid] had a half-maximal inhibitory concentration (IC50) under setting [2] of 44 nM.
Turning to `CCC1Cc2cc(OCC3CCOCC3)c(OC)cc2-c2cc(=O)c(C(=O)O)cn21` (single isomer, unassigned; (+)) [Example 49, (+)-6-ethyl-10-methoxy-2-oxo-9-(tetrahydropyran-4-ylmethoxy)-6,7-dihydrobenzo[a]quinolizine-3-carboxylic acid], under setting [2], half-maximal inhibition (IC50) was put at 15 nM.
On the same count and under the same terms, the same measure for `COc1cc2c(cc1OC)-c1cc(=O)c(C(=O)O)cn1C(C)C2` (single isomer, unassigned; (+)) [Example 67, (+)-9,10-dimethoxy-6-methyl-2-oxo-6,7-dihydrobenzo[a]quinolizine-3-carboxylic acid]: 380 nM.
With `CCC1Cc2cc(OC)c(C3CC3)cc2-c2cc(=O)c(C(=O)O)cn21` (single isomer, unassigned; (+)) [Example 90, (+)-10-cyclopropyl-6-ethyl-9-methoxy-2-oxo-6,7-dihydrobenzo[a]quinolizine-3-carboxylic acid], the midpoint of inhibition under setting [2], the IC50, lay at 10 nM.
The same measure, in the same setting: then `COc1cc2c(cc1OC)-c1cc(=O)c(C(=O)O)cn1C(CC(C)C)C2` (single isomer, unassigned; (+)) [Example 102, (+)-6-isobutyl-9,10-dimethoxy-2-oxo-6,7-dihydrobenzo[a]quinolizine-3-carboxylic acid], with 42 nM.
`COCCOc1cc2c(cc1Cl)-c1cc(=O)c(C(=O)O)cn1C(CC(C)C)C2` (single isomer, unassigned; (+)) [Example 105, (+)-10-chloro-6-isobutyl-9-(2-methoxyethoxy)-2-oxo-6,7-dihydrobenzo[a]quinolizine-3-carboxylic acid] showed an IC50 under setting [2] of 16 nM.
Still for that read-out and setting: the same measure for `CCC1Cc2cc(OCc3ccccc3)c(C)cc2-c2cc(=O)c(C(=O)O)cn21` (single isomer, unassigned; (+)) [Example 116, (+)-9-benzyloxy-6-ethyl-10-methyl-2-oxo-6,7-dihydrobenzo[a]quinolizine-3-carboxylic acid]: 33 nM; for `CCOc1cc2c(cc1Cl)-c1cc(=O)c(C(=O)O)cn1C(CC)C2` (single isomer, unassigned; (+)) [Example 118, (+)-10-chloro-9-ethoxy-6-ethyl-2-oxo-6,7-dihydrobenzo[a]quinolizine-3-carboxylic acid]: 4 nM.
Under setting [2], `COc1cc2c(cc1OCC(F)(F)F)CC(C(C)C)n1cc(C(=O)O)c(=O)cc1-2` (single isomer, unassigned; (+)) [Example 127, (+)-6-isopropyl-10-methoxy-2-oxo-9-(2,2,2-trifluoroethoxy)-6,7-dihydrobenzo[a]quinolizine-3-carboxylic acid] gave an IC50 of 8 nM.
Still for that read-out and setting: then `COCCOc1cc2c(cc1OC)-c1cc(=O)c(C(=O)O)cn1C(C(C)C)C2` (single isomer, unassigned; (+)) [Example 129, (+)-6-isopropyl-10-methoxy-9-(2-methoxyethoxy)-2-oxo-6,7-dihydrobenzo[a]quinolizine-3-carboxylic acid], with 12 nM; and `COCCCOc1cc2c(cc1OC)-c1cc(=O)c(C(=O)O)cn1C(C(C)(C)C)C2` (single isomer, unassigned; (+)) [Example 132, (+)-6-tert-butyl-10-methoxy-9-(3-methoxypropoxy)-2-oxo-6,7-dihydrobenzo[a]quinolizine-3-carboxylic acid], with 1 nM; and `COCCOc1cc2c(cc1OC)-c1cc(=O)c(C(=O)O)cn1C(C1(C)CC1)C2` (single isomer, unassigned; (+)) [Example 135, (+)-10-methoxy-9-(2-methoxyethoxy)-6-(1-methylcyclopropyl)-2-oxo-6,7-dihydrobenzo[a]quinolizine-3-carboxylic acid], with 4 nM.
`COCCCOc1cc2c(c(Cl)c1F)-c1cc(=O)c(C(=O)O)cn1C(C(C)C)C2` (single isomer, unassigned; (+)) [Example 138, (+)-11-chloro-10-fluoro-6-isopropyl-9-(3-methoxypropoxy)-2-oxo-6,7-dihydrobenzo[a]quinolizine-3-carboxylic acid] registered an IC50 under setting [2] of 9 nM.
Still for that read-out and setting: then `COc1cc2c(cc1OCC(F)F)CC(C(C)C)n1cc(C(=O)O)c(=O)cc1-2` (single isomer, unassigned; (+)) [Example 142, (+)-9-(2,2-difluoroethoxy)-6-isopropyl-10-methoxy-2-oxo-6,7-dihydrobenzo[a]quinolizine-3-carboxylic acid], with 4 nM.
Turning to `COc1cc2c(cc1OCC(C)(C)CO)CC(C(C)C)n1cc(C(=O)O)c(=O)cc1-2` (single isomer, unassigned; (+)) [Example 145, (+)-9-(3-hydroxy-2,2-dimethyl-propoxy)-6-isopropyl-10-methoxy-2-oxo-6,7-dihydrobenzo[a]quinolizine-3-carboxylic acid], under setting [2], the IC50 amounted to 6 nM.
Same read-out and setting: the same measure for `COc1cc2c(cc1OCC(C)(C)CO)CC(C(C)(C)C)n1cc(C(=O)O)c(=O)cc1-2` (single isomer, unassigned; (+)) [Example 150, (+)-6-tert-butyl-9-(3-hydroxy-2,2-dimethyl-propoxy)-10-methoxy-2-oxo-6,7-dihydrobenzo[a]quinolizine-3-carboxylic acid]: 2 nM.
